How the values were obtained:
Type in all cases: in vivo
[1] = system: lambsquarters (Chenopodium album, CHEAL); experiment: Post-emerge test, greenhouse herbicide activity screening; conditions: rating scale 0-100 (0 no damage, 100 complete death), 14 days after application
How it was run: (§1)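 Each test used a mechanized track sprayer delivering 187 l/ha of acetone solution at 15–1000 g ai/ha. Post-emerge foliage at 2–3 leaves was treated with added 0.25% v/v non-ionic surfactant and bottom-watered only. Injury was assessed on day 14, where 100 means total kill.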

[2] = system: ivyleaf morningglory (Ipomoea hederacea, IPOHE); experiment: as above; conditions: rating scale 0-100 (0 no damage, 100 complete death), 14 days after application
How it was run: as §1

[3] = system: velvetleaf (Abutilon theophrasti, ABUTH); experiment: as above; conditions: rating scale 0-100 (0 no damage, 100 complete death), 14 days after application
How it was run: as §1

[4] = system: large crabgrass (Digitaria sanguinalis, DIGSA); experiment: as above; conditions: rating scale 0-100 (0 no damage, 100 complete death), 14 days after application
How it was run: as §1

[5] = system: green foxtail (Setaria viridis, SETVI); experiment: as above; conditions: rating scale 0-100 (0 no damage, 100 complete death), 14 days after application
How it was run: as §1

[6] = system: barnyardgrass (Echinochloa crus-galli, ECHCG); experiment: as above; conditions: rating scale 0-100 (0 no damage, 100 complete death), 14 days after application
How it was run: as §1

[7] = system: sicklepod (Cassia obtusifolia, CASOB); experiment: as above; conditions: rating scale 0-100 (0 no damage, 100 complete death), 14 days after application
How it was run: as §1

[8] = system: common ragweed (Ambrosia artemisizfolia L., AMBEL); experiment: as above; conditions: rating scale 0-100 (0 no damage, 100 complete death), 14 days after application
How it was run: as §1

[9] = system: johnsongrass (Sorghum halepense, SORHA); experiment: as above; conditions: rating scale 0-100 (0 no damage, 100 complete death), 14 days after application
How it was run: as §1

[10] = system: redroot pigweed (Amaranthus retroflexus, AMARE); experiment: as above; conditions: rating scale 0-100 (0 no damage, 100 complete death), 14 days after application
How it was run: as §1

[11] = system: redroot pigweed (Amaranthus retroflexus, AMARE); experiment: Pre-emerge test, greenhouse herbicide activity screening; conditions: rating scale 0-100, 14 days after application
How it was run: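 Plants grown in 10 cm pots of sandy loam mix received acetone-dissolved compounds through a moving flat-fan nozzle. Doses ranged from 15 to 1000 g ai/ha. Pre-emerge pots were seeded one day earlier, post-emerge pots 8–21 days earlier. Fourteen days on, each pot was graded 0–100 for damage.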

[12] = system: lambsquarters (Chenopodium album, CHEAL); experiment: as above; conditions: rating scale 0-100, 14 days after application
How it was run: (§2)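 Applied at 15–1000 g ai/ha from acetone in 187 l/ha spray volume. Post-emergence applications included 0.25% v/v non-ionic surfactant and reached plants sown 8–21 days before. Pre-emergence applications were incorporated by surface watering. Efficacy or crop damage was rated on a 0–100 scale after 14 days.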

[13] = system: ivyleaf morningglory (Ipomoea hederacea, IPOHE); experiment: as above; conditions: rating scale 0-100, 14 days after application
How it was run: as §2

[14] = system: velvetleaf (Abutilon theophrasti, ABUTH); experiment: as above; conditions: rating scale 0-100, 14 days after application
How it was run: as §2

[15] = system: large crabgrass (Digitaria sanguinalis, DIGSA); experiment: as above; conditions: rating scale 0-100, 14 days after application
How it was run: as §2

[16] = system: green foxtail (Setaria viridis, SETVI); experiment: as above; conditions: rating scale 0-100, 14 days after application
How it was run: as §2

[17] = system: barnyardgrass (Echinochloa crus-galli, ECHCG); experiment: as above; conditions: rating scale 0-100, 14 days after application
How it was run: as §2

[18] = system: sicklepod (Cassia obtusifolia, CASOB); experiment: as above; conditions: rating scale 0-100, 14 days after application
How it was run: as §2

[19] = system: johnsongrass (Sorghum halepense, SORHA); experiment: as above; conditions: rating scale 0-100, 14 days after application
How it was run: as §2

[20] = system: field corn (Zea mays L., var. Dekalb 535, CORN); experiment: Post-emerge test, crop safety; conditions: rating scale 0-100 (0 no damage, 100 complete death), 14 days after application
How it was run: as §2

[21] = system: upland rice (Oryza sp., var. Tebonnet, RICE); experiment: Post-emerge test, crop safety; conditions: rating scale 0-100 (0 no damage, 100 complete death), 14 days after application
How it was run: as §2

[22] = system: field corn (Zea mays L., var. Dekalb 535, CORN); experiment: Pre-emerge test, crop safety; conditions: rating scale 0-100, 14 days after application
How it was run: (§3)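 Herbicidal damage is scored 0 (none) to 100 (complete plant death) two weeks after a simulated field spray. Rates span 15–1000 g ai/ha, delivered in acetone at 187 l/ha. For post-emergence treatments, plants have 2–3 leaves and the spray carries 0.25% v/v non-ionic surfactant.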

[23] = system: upland rice (Oryza sp., var. Tebonnet, RICE); experiment: Pre-emerge test, crop safety; conditions: rating scale 0-100, 14 days after application
How it was run: as §3

Compound: COc1c(Cl)cc(F)c(-n2c(=O)cc(C(F)(F)F)n(C)c2=O)c1CC(Cl)C(=O)OCC(F)(F)C(F)(F)C(F)(F)F (single isomer, unassigned) [14-24]
- Post-emerge Herbicidal Activity, phytotoxicity rating CHEAL ([1]; Rate 63 g ai/ha): 80
- Post-emerge Herbicidal Activity, phytotoxicity rating CHEAL ([1]; Rate 250 g ai/ha): 90
- Post-emerge Herbicidal Activity, phytotoxicity rating IPOHE ([2]; Rate 63 g ai/ha): 20
- Post-emerge Herbicidal Activity, phytotoxicity rating IPOHE ([2]; Rate 250 g ai/ha): 40
- Post-emerge Herbicidal Activity, phytotoxicity rating ABUTH ([3]; Rate 63 g ai/ha): 70
- Post-emerge Herbicidal Activity, phytotoxicity rating ABUTH ([3]; Rate 250 g ai/ha): 100
- Post-emerge Herbicidal Activity, phytotoxicity rating DIGSA ([4]; Rate 63 g ai/ha): 95
- Post-emerge Herbicidal Activity, phytotoxicity rating DIGSA ([4]; Rate 250 g ai/ha): 100
- Post-emerge Herbicidal Activity, phytotoxicity rating SETVI ([5]; Rate 63 g ai/ha): 0
- Post-emerge Herbicidal Activity, phytotoxicity rating SETVI ([5]; Rate 250 g ai/ha): 50
- Post-emerge Herbicidal Activity, phytotoxicity rating ECHCG ([6]; Rate 63 g ai/ha): 100
- Post-emerge Herbicidal Activity, phytotoxicity rating ECHCG ([6]; Rate 250 g ai/ha): 100
- Post-emerge Herbicidal Activity, phytotoxicity rating CASOB ([7]; Rate 63 g ai/ha): 0
- Post-emerge Herbicidal Activity, phytotoxicity rating CASOB ([7]; Rate 250 g ai/ha): 0
- Post-emerge Herbicidal Activity, phytotoxicity rating AMBEL ([8]; Rate 63 g ai/ha): 50
- Post-emerge Herbicidal Activity, phytotoxicity rating AMBEL ([8]; Rate 250 g ai/ha): 50
- Post-emerge Herbicidal Activity, phytotoxicity rating SORHA ([9]; Rate 63 g ai/ha): 0
- Post-emerge Herbicidal Activity, phytotoxicity rating SORHA ([9]; Rate 250 g ai/ha): 50
- Post-emerge Herbicidal Activity, phytotoxicity rating AMARE ([10]; Rate 63 g ai/ha): 40
- Post-emerge Herbicidal Activity, phytotoxicity rating AMARE ([10]; Rate 250 g ai/ha): 90
- Pre-emerge herbicidal activity, phytotoxicity rating AMARE ([11]; 63 g ai/ha): 50
- Pre-emerge herbicidal activity, phytotoxicity rating AMARE ([11]; 250 g ai/ha): 100
- Pre-emerge herbicidal activity, phytotoxicity rating CHEAL ([12]; 63 g ai/ha): 0
- Pre-emerge herbicidal activity, phytotoxicity rating CHEAL ([12]; 250 g ai/ha): 50
- Pre-emerge herbicidal activity, phytotoxicity rating IPOHE ([13]; 63 g ai/ha): 0
- Pre-emerge herbicidal activity, phytotoxicity rating IPOHE ([13]; 250 g ai/ha): 0
- Pre-emerge herbicidal activity, phytotoxicity rating ABUTH ([14]; 63 g ai/ha): 0
- Pre-emerge herbicidal activity, phytotoxicity rating ABUTH ([14]; 250 g ai/ha): 80
- Pre-emerge herbicidal activity, phytotoxicity rating DIGSA ([15]; 63 g ai/ha): 20
- Pre-emerge herbicidal activity, phytotoxicity rating DIGSA ([15]; 250 g ai/ha): 80
- Pre-emerge herbicidal activity, phytotoxicity rating SETVI ([16]; 63 g ai/ha): 0
- Pre-emerge herbicidal activity, phytotoxicity rating SETVI ([16]; 250 g ai/ha): 0
- Pre-emerge herbicidal activity, phytotoxicity rating ECHCG ([17]; 63 g ai/ha): 0
- Pre-emerge herbicidal activity, phytotoxicity rating ECHCG ([17]; 250 g ai/ha): 0
- Pre-emerge herbicidal activity, phytotoxicity rating CASOB ([18]; 63 g ai/ha): 0
- Pre-emerge herbicidal activity, phytotoxicity rating CASOB ([18]; 250 g ai/ha): 30
- Pre-emerge herbicidal activity, phytotoxicity rating SORHA ([19]; 63 g ai/ha): 0
- Pre-emerge herbicidal activity, phytotoxicity rating SORHA ([19]; 250 g ai/ha): 0
- Post-emerge phytotoxicity rating CORN (crop damage) ([20]; Rate 63 g ai/ha): 10
- Post-emerge phytotoxicity rating CORN (crop damage) ([20]; Rate 250 g ai/ha): 20
- Post-emerge phytotoxicity rating RICE (crop damage) ([21]; Rate 63 g ai/ha): 10
- Post-emerge phytotoxicity rating RICE (crop damage) ([21]; Rate 250 g ai/ha): 50
- Pre-emerge phytotoxicity rating, crop damage CORN ([22]; 63 g ai/ha): 0
- Pre-emerge phytotoxicity rating, crop damage CORN ([22]; 250 g ai/ha): 0
- Pre-emerge phytotoxicity rating, crop damage RICE ([23]; 63 g ai/ha): 0
- Pre-emerge phytotoxicity rating, crop damage RICE ([23]; 250 g ai/ha): 20
